Reference: the NIST ThermoML archive (doi:10.1021/je0603325)

Legend:
[1] = 101 kPa, Liquid
[2] = molar heat capacity at constant pressure; conditions: 101 kPa, Liquid, Small sample (50 mg) DSC
[3] = xn = mol fraction of the nth substance listed; conditions: 101 kPa, Liquid, x2 = 0

CCCCCCC [heptane]
[1]
Conditions	mass density [kg/m3]
293.15 K	683.82
298.15 K	679.59
303.15 K	675.31
308.15 K	671.02
313.15 K	666.68

BrCCBr [1,2-dibromoethane]
Conditions	mass density [kg/m3]	molar heat capacity at constant pressure [J/K/mol]	speed of sound [m/s]
[1], 292.84 K	–	–	1007.5
[1], 293.15 K	2178.77	–	–
[1], 298.15 K	2168.41	–	–
[1], 299.17 K	–	–	991.14
[1], 303.15 K	2157.94	–	–
[1], 303.37 K	–	–	980.18
[1], 308.15 K	2147.47	–	–
[1], 308.75 K	–	–	966.56
[1], 313.15 K	2136.96	–	–
[1], 314.45 K	–	–	952
[2], 293.15 K	–	136.87	–
[2], 294.15 K	–	136.9	–
[2], 295.15 K	–	136.95	–
[2], 296.15 K	–	136.99	–
[2], 297.15 K	–	137.02	–
[2], 298.15 K	–	137.04	–
[2], 299.15 K	–	137.09	–
[2], 300.15 K	–	137.11	–
[2], 301.15 K	–	137.15	–
[2], 302.15 K	–	137.2	–
[2], 303.15 K	–	137.25	–
[2], 304.15 K	–	137.29	–
[2], 305.15 K	–	137.32	–
[2], 306.15 K	–	137.39	–
[2], 307.15 K	–	137.42	–
[2], 308.15 K	–	137.49	–
[2], 309.15 K	–	137.53	–
[2], 310.15 K	–	137.6	–
[2], 311.15 K	–	137.65	–
[2], 312.15 K	–	137.71	–
[2], 313.15 K	–	137.77	–

CCCCCCC [heptane] + BrCCBr
[3]
Conditions	mass density [kg/m3]
293.15 K	683.82
298.15 K	679.59
303.15 K	675.31
308.15 K	671.02
313.15 K	666.68
